The text below walks through data of patent US20260234211A1, “POLYPEPTIDE HAVING MODIFIED STRUCTURE AND USE THEREOF” (Guangdong Raynovent Biotech Co., Ltd., priority 2023, published 2026).

One series has as its target T1, GLP-1R (Homo sapiens, UniProt P43220).
T1 construct: host or cells: HEK293
Kind of series: In vitro GLP-1R agonistic activity test (cAMP, HEK293 cell line). Type of series: cell-based. Here is the method:
The cell lines were constructed by Pharmaron Inc. See details in the table below.
The test compounds were diluted at a 5-fold dilution factor in 10 points, starting from an initial concentration of 200 nM.
1) The cell lines were cultured respectively in complete medium at 37° C. and 5% CO2.
1) Eu-cAMP tracer was freeze-thawed and diluted 50 fold with detection buffer; and Ulight-anti-cAMP was freeze-thawed and diluted 150 fold with detection buffer.
3) 10 μL of Eu-cAMP tracer was added and then 10 μL of Uligh-anti-cAMP was added into experimental wells respectively.
4) The reaction plate was centrifuged at 200 g at room temperature for 30 s and left for stand at 25° C. for 1 h.

The nature of series [1]: Pharmacokinetic properties in Cynomolgus macaques. The note with it: cynomolgus monkey, in vivo, male cynomolgus macaques, plasma. The method, then:
To test the pharmacokinetic profiles of the compounds in Cynomolgus macaques.
Non-juvenile male cynomolgus macaques were used for experiment, 3 cynomolgus macaques for each compound. Whole blood was collected at time points of 1 h, 2 h, 4 h, 8 h, 16 h, 24 h, 48 h, 72 h, 120 h, 168 h and 240 h after administration, to prepare plasma. The drug concentration was analyzed by LC-MS/MS method, and the pharmacokinetic parameters were calculated using Phoenix WinNonlin software.

Where [2] appears, read: cAMP, HEK293 cells expressing GLP-1R, read-out: GLP-1 EC50.

Like-named read-outs stand apart in the source and are kept apart here.

T1 sequence (P43220 24-463, species assumed): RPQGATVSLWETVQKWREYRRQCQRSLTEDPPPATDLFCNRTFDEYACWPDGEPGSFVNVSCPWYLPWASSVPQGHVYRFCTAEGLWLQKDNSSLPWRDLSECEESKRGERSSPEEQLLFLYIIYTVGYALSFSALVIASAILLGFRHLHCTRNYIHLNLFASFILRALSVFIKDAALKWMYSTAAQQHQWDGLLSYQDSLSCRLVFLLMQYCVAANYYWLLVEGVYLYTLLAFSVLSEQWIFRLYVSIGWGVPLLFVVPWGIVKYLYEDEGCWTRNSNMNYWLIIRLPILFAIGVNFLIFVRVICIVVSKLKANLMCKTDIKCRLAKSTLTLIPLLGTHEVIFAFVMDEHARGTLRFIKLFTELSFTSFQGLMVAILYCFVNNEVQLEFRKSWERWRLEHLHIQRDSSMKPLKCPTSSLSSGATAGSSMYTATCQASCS

As usually defined, the EC50 is the concentration giving half of the maximal effect. Take `CC[C@H](C)[C@@H]1NC(=O)[C@H](Cc2ccccc2)NC(=O)[C@@H](NC(=O)C(C)(C)NC(=O)[C@H](CCC(N)=O)NC(=O)[C@H](C)NC(=O)[C@H](CCCCN)NC(=O)[C@H](CCCCN)NC(=O)[C@H](CC(=O)O)NC(=O)[C@H](CC(C)C)NC(=O)[C@](C)(CC(C)C)NC(=O)[C@@H](NC(=O)[C@H](CO)NC(=O)[C@H](Cc2ccc(O)cc2)NC(=O)[C@H](CC(=O)O)NC(=O)[C@H](CO)NC(=O)[C@@H](NC(=O)[C@H](Cc2ccccc2)NC(=O)[C@@H](NC(=O)CNC(=O)[C@H](CCC(N)=O)NC(=O)C(C)(C)NC(=O)[C@@H](N)Cc2ccc(O)cc2)[C@@H](C)O)[C@@H](C)O)[C@@H](C)CC)CCCCNC(=O)CN(C(=O)COCCOCCNC(=O)COCCOCCNC(=O)CC[C@H](NC(=O)CCCCCCCCCCCCCCCCCCC(=O)O)C(=O)O)CC(=O)NCCCC[C@@H](C(=O)NCC(=O)NCC(=O)N2CCC[C@H]2C(=O)N[C@@H](CO)C(=O)N[C@@H](CO)C(=O)NCC(=O)N[C@@H](C)C(=O)N2CCC[C@H]2C(=O)N2CCC[C@H]2C(=O)N2CCC[C@H]2C(=O)N[C@@H](CO)C(N)=O)NC(=O)[C@H](CC(C)C)NC(=O)[C@H](CC(C)C)NC(=O)[C@H](Cc2ccc(O)cc2)NC(=O)[C@H](CCC(=O)O)NC1=O` [Example 14, YAibQGT FTSDY SIα- MeLLD KKAQAib ^1KFIEY LLIKGG PSSGA PPPS-NH2 (SEQ ID NO: 20)]: at GLP-1R (setting [2]), the EC50 worked out at 1 pM.
In the case of `CC[C@H](C)[C@H](NC(=O)[C@H](Cc1ccccc1)NC(=O)[C@@H]1CCCCNC(=O)CN(C(=O)[C@@H](N)CCCCNC(=O)[C@@H](N)CCCCNC(=O)CC[C@H](NC(=O)CCCCCCCCCCCCCCCCCCC(=O)O)C(=O)O)CC(=O)NCCCC[C@H](NC(=O)[C@H](CCCCN)NC(=O)[C@H](CC(=O)O)NC(=O)[C@H](CC(C)C)NC(=O)[C@](C)(CC(C)C)NC(=O)[C@@H](NC(=O)[C@H](CO)NC(=O)[C@H](Cc2ccc(O)cc2)NC(=O)[C@H](CC(=O)O)NC(=O)[C@H](CO)NC(=O)[C@@H](NC(=O)[C@H](Cc2ccccc2)NC(=O)[C@@H](NC(=O)CNC(=O)[C@H](CCC(N)=O)NC(=O)C(C)(C)NC(=O)[C@@H](N)Cc2ccc(O)cc2)[C@@H](C)O)[C@@H](C)O)[C@@H](C)CC)C(=O)N[C@@H](C)C(=O)N[C@@H](CCC(N)=O)C(=O)NC(C)(C)C(=O)N1)C(=O)N[C@@H](CCC(=O)O)C(=O)N[C@@H](Cc1ccccc1)C(=O)N[C@@H](CC(C)C)C(=O)N[C@@H](CC(C)C)C(=O)N[C@@H](CCC(=O)O)C(=O)NCC(=O)NCC(=O)N1CCC[C@H]1C(=O)N[C@@H](CO)C(=O)N[C@@H](CO)C(=O)NCC(=O)N[C@@H](C)C(=O)N1CCC[C@H]1C(=O)N1CCC[C@H]1C(=O)N1CCC[C@H]1C(=O)N[C@@H](CO)C(N)=O` [Example 22, YAibQGT FTSDY SIα- MeLLD K^1KAQAib ^1KFIEF LLEGG PSSGA PPPS-NH2 (SEQ ID NO: 25)], on GLP-1R (setting [2]), the EC50 is 9 pM.
What is called Cmax is the highest concentration seen after dosing. One may read the Tmax as the time at which the peak concentration occurs. As for `CC[C@H](C)[C@H](NC(=O)[C@H](Cc1ccccc1)NC(=O)[C@H](C)NC(=O)C(C)(C)NC(=O)[C@H](CCC(N)=O)NC(=O)[C@H](C)NC(=O)[C@@H]1CCCCNC(=O)CN(C(=O)COCCOCCNC(=O)CC[C@H](NC(=O)CCCCCCCCCCCCCCCCCCC(=O)O)C(=O)O)CC(=O)NCCCC[C@H](NC(=O)[C@](C)(CC(C)C)NC(=O)[C@@H](NC(=O)[C@H](CO)NC(=O)[C@H](Cc2ccc(O)cc2)NC(=O)[C@H](CC(=O)O)NC(=O)[C@H](CO)NC(=O)[C@@H](NC(=O)[C@H](Cc2ccccc2)NC(=O)[C@@H](NC(=O)CNC(=O)[C@H](CCC(N)=O)NC(=O)C(C)(C)NC(=O)[C@@H](N)Cc2ccc(O)cc2)[C@@H](C)O)[C@@H](C)O)[C@@H](C)CC)C(=O)N[C@@H](CC(=O)O)C(=O)N[C@@H](CCCCN)C(=O)N1)C(=O)N[C@@H](CCC(=O)O)C(=O)N[C@@H](Cc1ccc(O)cc1)C(=O)N[C@@H](CC(C)C)C(=O)N[C@@H](CC(C)C)C(=O)N[C@@H](CCCCN)C(=O)NCC(=O)NCC(=O)N1CCC[C@H]1C(=O)N[C@@H](CO)C(=O)N[C@@H](CO)C(=O)NCC(=O)N[C@@H](C)C(=O)N1CCC[C@H]1C(=O)N1CCC[C@H]1C(=O)N1CCC[C@H]1C(=O)N[C@@H](CO)C(N)=O` [Example 38, YAibQGT FTSDY SIα- MeL^1KD K^1KAQAib AFIEY LLKGG PSSGA PPPS-NH2 (SEQ ID NO: 38)], the AUC(0-t) in series [1] (read-out: AUC0-240 h) was 3.88 µM·h. The AUC(0-inf) in series [1] (read-out: AUCINF) was 4.41 µM·h. The maximum concentration (Cmax) in series [1] (read-out: Cmax) worked out at 33.9 nM. In addition, in series [1] (read-out: T1/2 (converted)), the half-life is 74.9 h. Besides, the Tmax in series [1] (read-out: Tmax) came to 21.3 h. Moreover, the 50% effective concentration (EC50) at GLP-1R came out at 2 pM.
As to `CC[C@H](C)[C@H](NC(=O)[C@H](Cc1ccccc1)NC(=O)[C@H](C)NC(=O)C(C)(C)NC(=O)[C@H](CCC(N)=O)NC(=O)[C@H](C)NC(=O)[C@@H]1CCCCNC(=O)CN(C(=O)COCCOCCNC(=O)[C@@H](N)CCCCNC(=O)CC[C@H](NC(=O)CCCCCCCCCCCCCCCCCCC(=O)O)C(=O)O)CC(=O)NCCCC[C@H](NC(=O)[C@](C)(CC(C)C)NC(=O)[C@@H](NC(=O)[C@H](CO)NC(=O)[C@H](Cc2ccc(O)cc2)NC(=O)[C@H](CC(=O)O)NC(=O)[C@H](CO)NC(=O)[C@@H](NC(=O)[C@H](Cc2ccccc2)NC(=O)[C@@H](NC(=O)CNC(=O)[C@H](CCC(N)=O)NC(=O)C(C)(C)NC(=O)[C@@H](N)Cc2ccc(O)cc2)[C@@H](C)O)[C@@H](C)O)[C@@H](C)CC)C(=O)N[C@@H](CC(=O)O)C(=O)N[C@@H](CCCCN)C(=O)N1)C(=O)N[C@@H](CCC(=O)O)C(=O)N[C@@H](Cc1ccc(O)cc1)C(=O)N[C@@H](CC(C)C)C(=O)N[C@@H](CC(C)C)C(=O)N[C@@H](CCCCN)C(=O)NCC(=O)NCC(=O)N1CCC[C@H]1C(=O)N[C@@H](CO)C(=O)N[C@@H](CO)C(=O)NCC(=O)N[C@@H](C)C(=O)N1CCC[C@H]1C(=O)N1CCC[C@H]1C(=O)N1CCC[C@H]1C(=O)N[C@@H](CO)C(N)=O` [Example 54, YAibQGT FTSDY SIα- MeL^1KD K^1KAQAib AFIEY LLKGG PSSGA PPPS-NH2 (SEQ ID NO: 38)], the EC50 on GLP-1R (setting [2]) came to 2 pM.
